The source of these data is patent US20240228504A1, “SUBSTITUTED TRICYCLIC AMIDES, ANALOGUES THEREOF, AND METHODS USING SAME” (Arbutus Biopharma Corporation, priority 2020, published 2024).

Each structure is given as a SMILES string. pEC50: −log10 of the molar value.

One assay deals with HBV rcDNA in HepDE19 cells. Nature of the assay: HepDE19 assay with bDNA quantitation of HBV rcDNA. To be noted: HepDE19 assay, inhibition of rcDNA formation, bDNA quantitation; read-out: DE-19bDNA EC50. It counts as cell-based, hepatitis B virus.
Turning to `CN(C(=O)C1Nc2ccccc2C1(C)C)C1COCc2[nH]c(=O)c3cc(F)c(F)cc3c21` (stereo not shown) [Compound 57, N-(8,9-Difluoro-6-oxo-1,4,5,6-tetrahydro-2H-pyrano[3,4-c]isoquinolin-1-yl)-N,3,3-trimethylindoline-2-carboxamide], the pEC50 is 4.64.
Consider `CN(C(=O)C1Nc2ccccc2C1(C)C)C1COCc2[nH]c(=O)c3cc(F)c(F)cc3c21` (stereo not shown) [Compound 59, N-(8,9-Difluoro-6-oxo-1,4,5,6-tetrahydro-2H-pyrano[3,4-c]isoquinolin-1-yl)-N,3,3-trimethylindoline-2-carboxamide], for which the pEC50 is 4.66.

The assay is the same for the next values; noted with them: Hepatitis B virus, HepDE19, HepDE19 assay, inhibition of rcDNA formation, bDNA quantitation; read-out: DE-19bDNA EC50.
On to `CN(C(=O)c1cn2cc(Cl)ccc2n1)[C@@H]1COCc2[nH]c(=O)c3cc(F)c(F)cc3c21` [Compound 51, (S)-6-Chloro-N-(8,9-difluoro-6-oxo-1,4,5,6-tetrahydro-2H-pyrano[3,4-c]isoquinolin-1-yl)-N-methylimidazo[1,2-a]pyridine-2-carboxamide], for which the pEC50 was 5.89.
As for `CN(C(=O)c1cn2cc(Cl)ccc2n1)[C@@H]1COCc2[nH]c(=O)c3cc(F)ccc3c21` [Compound 52, (S)-6-Chloro-N-(8-fluoro-6-oxo-1,4,5,6-tetrahydro-2H-pyrano[3,4-c]isoquinolin-1-yl)-N-methylimidazo[1,2-a]pyridine-2-carboxamide], the pEC50 was 5.39.
Consider `CCN(C(=O)c1cn2cc(Cl)ccc2n1)[C@@H]1COCc2[nH]c(=O)c3cc(F)ccc3c21` [Compound 53, (S)-6-Chloro-N-ethyl-N-(8-fluoro-6-oxo-1,4,5,6-tetrahydro-2H-pyrano[3,4-c]isoquinolin-1-yl)imidazo[1,2-a]pyridine-2-carboxamide], for which the pEC50 is 5.60.
Regarding `CN(C(=O)C1Nc2ccccc2C1(C)C)C1COCc2[nH]c(=O)c3cc(F)c(F)cc3c21` (stereo not shown) [Compound 56, N-(8,9-Difluoro-6-oxo-1,4,5,6-tetrahydro-2H-pyrano[3,4-c]isoquinolin-1-yl)-N,3,3-trimethylindoline-2-carboxamide], the pEC50 is 4.74.
As for `CN(C(=O)c1cc2ccccn2n1)[C@@H]1COCc2[nH]c(=O)c3cc(F)c(F)cc3c21` [Compound 64, (S)-N-(8,9-Difluoro-6-oxo-1,4,5,6-tetrahydro-2H-pyrano[3,4-c]isoquinolin-1-yl)-N-methylpyrazolo[1,5-a]pyridine-2-carboxamide], the pEC50 is 6.20.
For `CN(C(=O)c1cc2cccnn2c1)[C@@H]1COCc2[nH]c(=O)c3cc(F)c(F)cc3c21` [Compound 65, (S)-N-(8,9-Difluoro-6-oxo-1,4,5,6-tetrahydro-2H-pyrano[3,4-c]isoquinolin-1-yl)-N-methylpyrrolo[1,2-b]pyridazine-6-carboxamide], the pEC50 was 6.82.
Same read-out and setting: the result for `CN(C(=O)c1ccc2cccnc2c1)[C@@H]1COCc2[nH]c(=O)c3cc(F)c(F)cc3c21` [Compound 66, (S)-N-(8,9-Difluoro-6-oxo-1,4,5,6-tetrahydro-2H-pyrano[3,4-c]isoquinolin-1-yl)-N-methylquinoline-7-carboxamide] reads 5.64; that for `CN(C(=O)c1ccc2ncccc2c1)[C@@H]1COCc2[nH]c(=O)c3cc(F)c(F)cc3c21` [Compound 67, (S)-N-(8,9-Difluoro-6-oxo-1,4,5,6-tetrahydro-2H-pyrano[3,4-c]isoquinolin-1-yl)-N-methylquinoline-6-carboxamide], 5.80.
For `CN(C(=O)c1ccc2nncn2c1)[C@@H]1COCc2[nH]c(=O)c3cc(F)c(F)cc3c21` [Compound 70, (S)-N-(8,9-Difluoro-6-oxo-1,4,5,6-tetrahydro-2H-pyrano[3,4-c]isoquinolin-1-yl)-N-methyl-[1,2,4]triazolo[4,3-a]pyridine-6-carboxamide], the negative-log EC50 (pEC50) is 4.66.
Regarding `CN(C(=O)c1cnc2ccccc2c1)[C@@H]1COCc2[nH]c(=O)c3cc(F)c(F)cc3c21` [Compound 71, (S)-N-(8,9-Difluoro-6-oxo-1,4,5,6-tetrahydro-2H-pyrano[3,4-c]isoquinolin-1-yl)-N-methylquinoline-3-carboxamide], the pEC50 was 6.48.
Turning to `CN(C(=O)c1ccc2nccnc2c1)[C@@H]1COCc2[nH]c(=O)c3cc(F)c(F)cc3c21` [Compound 72, (S)-N-(8,9-Difluoro-6-oxo-1,4,5,6-tetrahydro-2H-pyrano[3,4-c]isoquinolin-1-yl)-N-methylquinoxaline-6-carboxamide], the pEC50 is 5.42.
Turning to `CN(C(=O)c1ccc(C(F)(F)F)nc1)[C@@H]1COCc2[nH]c(=O)c3cc(F)c(F)cc3c21` [Compound 73, (S)-N-(8,9-Difluoro-6-oxo-1,4,5,6-tetrahydro-2H-pyrano[3,4-c]isoquinolin-1-yl)-N-methyl-6-(trifluoromethyl)nicotinamide], the pEC50 is 6.92.
`CN(C(=O)c1ccc(C(F)(F)F)c(F)c1)[C@@H]1COCc2[nH]c(=O)c3cc(F)c(F)cc3c21` [Compound 74, (S)-N-(8,9-Difluoro-6-oxo-1,4,5,6-tetrahydro-2H-pyrano[3,4-c]isoquinolin-1-yl)-3-fluoro-N-methyl-4-(trifluoromethyl)benzamide]: the pEC50 was 8.00.
With `CN(C(=O)c1ccc(Cl)c(F)c1)[C@@H]1COCc2[nH]c(=O)c3cc(F)c(F)cc3c21` [Compound 75, (S)-4-Chloro-N-(8,9-difluoro-6-oxo-1,4,5,6-tetrahydro-2H-pyrano[3,4-c]isoquinolin-1-yl)-3-fluoro-N-methylbenzamide], the pEC50 is 7.70.
For the compound `CN(C(=O)c1cc(F)c(F)c(F)c1)[C@@H]1COCc2[nH]c(=O)c3cc(F)c(F)cc3c21` [Compound 76, (S)-N-(8,9-Difluoro-6-oxo-1,4,5,6-tetrahydro-2H-pyrano[3,4-c]isoquinolin-1-yl)-3,4,5-trifluoro-N-methylbenzamide], the pEC50 was 7.05.
For the compound `CN(C(=O)c1cncc(F)c1)[C@@H]1COCc2[nH]c(=O)c3cc(F)c(F)cc3c21` [Compound 83, (S)-N-(8,9-Difluoro-6-oxo-1,4,5,6-tetrahydro-2H-pyrano[3,4-c]isoquinolin-1-yl)-5-fluoro-N-methylnicotinamide], the pEC50 was 5.15.
The same measure, in the same setting: the result for `CN(C(=O)c1cncc(Cl)c1)[C@@H]1COCc2[nH]c(=O)c3cc(F)c(F)cc3c21` [Compound 84, (S)-5-Chloro-N-(8,9-difluoro-6-oxo-1,4,5,6-tetrahydro-2H-pyrano[3,4-c]isoquinolin-1-yl)-N-methylnicotinamide] reads 5.24.
Consider `CN(C(=O)c1ccnc(F)c1)[C@@H]1COCc2[nH]c(=O)c3cc(F)c(F)cc3c21` [Compound 85, (S)-N-(8,9-Difluoro-6-oxo-1,4,5,6-tetrahydro-2H-pyrano[3,4-c]isoquinolin-1-yl)-2-fluoro-N-methylisonicotinamide], for which the pEC50 is 6.20.
For the compound `CN(C(=O)c1cccc(C(F)F)c1)[C@@H]1COCc2[nH]c(=O)c3cc(F)c(F)cc3c21` [Compound 86, (S)-N-(8,9-Difluoro-6-oxo-1,4,5,6-tetrahydro-2H-pyrano[3,4-c]isoquinolin-1-yl)-3-(difluoromethyl)-N-methylbenzamide], the pEC50 is 7.52.
With `CN(C(=O)[C@@H](O)Cc1ccccc1)[C@@H]1COCc2[nH]c(=O)c3cc(F)c(F)cc3c21` [Compound 87, (S)-N-((S)-8,9-Difluoro-6-oxo-1,4,5,6-tetrahydro-2H-pyrano[3,4-c]isoquinolin-1-yl)-2-hydroxy-N-methyl-3-phenylpropanamide], the pEC50 is 5.49.
